# System: IL-1β release from THP-1 cells
# Test: IL-1β Release Assay (Alternate Method), THP-1 cells
# Assay type: cell-based, human
# Details: Homo sapiens, THP-1, read-out: IL-1β % inhibition
# Summary of the method: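 IL-1β release, measured by ELISA, follows 45 min BzATP (250 uM final) stimulation of THP-1 cells given 30 min compound pretreatment. Cells were first primed 16 h with LPS and IFN-γ (100 ng/mL each), then 2 h with fresh LPS; inhibition expressed in percent after background correction.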
row,SMILES,inhibition at 0.3 µM [%]
1,"O=C(Nc1ncnc2c1CCN(Cc1ccccc1)C2)C12CC3CC(CC(C3)C1)C2 [Compound 334, Adamantane-1-carboxylic acid(7-benzyl-5,6,7,8-tetrahydro-pyrido[3,4-d]pyrimidin-4-yl)-amide]",50 to 75

# Same assay, conditions: Homo sapiens; at 0.3 μM; THP-1 cells; read-out: IL-1β % inhibition
row,SMILES,inhibition at 0.3 µM [%]
1,O=C(CC12CC3CC(CC(C3)C1)C2)Nc1ncnc2c1CCN(C(=O)c1ccccc1)C2 [Compound 220],> 75
2,CC(C)(C(=O)Nc1ncnc2c1CCN(C(=O)c1c(F)cccc1F)C2)C12CC3CC(CC(C3)C1)C2 [Compound 361],0 to 25

# Same assay, conditions: at 0.3 μM; THP-1 cells
row,SMILES,IL-1β % inhibition
1,O=C(CC12CC3CC(CC(C3)C1)C2)Nc1ncnc2c1CCN(S(=O)(=O)c1ccc(Oc3ccccc3)cc1)C2 [Compound 191],+ (compound exhibited 0-25% inhibition at 0.3 μM)
2,O=C(CC12CC3CC(CC(C3)C1)C2)Nc1ncnc2c1CCN(C(=O)c1ccc(F)c(F)c1)C2 [Compound 232],+++ (compound exhibited 50-75% inhibition at 0.3 μM)
3,COc1ccc(C(=O)N2CCc3c(ncnc3NC(=O)CC34CC5CC(CC(C5)C3)C4)C2)c(OC)c1 [Compound 275],+++ (compound exhibited 50-75% inhibition at 0.3 μM)
4,CC(C)(C(=O)Nc1ncnc2c1CCN(C(=O)c1cccc(Cl)c1Cl)C2)C12CC3CC(CC(C3)C1)C2 [Compound 364],+ (compound exhibited 0-25% inhibition at 0.3 μM)
5,O=C(CC12CC3CC(CC(C3)C1)C2)Nc1ncnc2c1CCN(C(=O)CCC1CCCC1)C2 [Compound 231],++ (compound exhibited 25-50% inhibition at 0.3 μM)
6,O=C(CC12CC3CC(CC(C3)C1)C2)Nc1ncnc2c1CCN(Cc1cccc3c1OC(F)(F)O3)C2 [Compound 90],+ (compound exhibited 0-25% inhibition at 0.3 μM)
7,CC(=O)N1CCC(C(=O)N2CCc3c(ncnc3NC(=O)CC34CC5CC(CC(C5)C3)C4)C2)CC1 [Compound 295],+ (compound exhibited 0-25% inhibition at 0.3 μM)
8,O=C(NCC1CCCCC1)c1ncnc2c1CCN(Cc1cccnc1)C2 [Compound 48],+ (compound exhibited 0-25% inhibition at 0.3 μM)
9,N#Cc1ccc(C(=O)N2CCc3c(ncnc3NC(=O)CC34CC5CC(CC(C5)C3)C4)C2)cc1 [Compound 257],+ (compound exhibited 0-25% inhibition at 0.3 μM)
10,Cc1cccc(C(=O)N2CCc3c(ncnc3NC(=O)C34CC5CC(CC(C5)C3)C4)C2)c1 [Compound 403],++ (compound exhibited 25-50% inhibition at 0.3 μM)
11,Cc1ccc(CN2CCc3c(ncnc3NC(=O)CC34CC5CC(CC(C5)C3)C4)C2)s1 [Compound 66],+ (compound exhibited 0-25% inhibition at 0.3 μM)
12,O=C(c1cccc(F)c1)N1CCc2c(ncnc2NC(=O)C23CC4CC(CC(C4)C2)C3)C1 [Compound 400],+ (compound exhibited 0-25% inhibition at 0.3 μM)
13,O=C(CC12CC3CC(CC(C3)C1)C2)Nc1ncnc2c1CCN(C(=O)Cc1ccc(F)cc1)C2 [Compound 241],+++ (compound exhibited 50-75% inhibition at 0.3 μM)
14,O=C(NCC1CCCCC1)c1ncnc2c1CCN(Cc1ccccc1)C2 [Compound 4],+ (compound exhibited 0-25% inhibition at 0.3 μM)
15,Cc1ccc(Cl)c(CN2CCc3c(ncnc3NC(=O)CC34CC5CC(CC(C5)C3)C4)C2)c1F [Compound 87],++ (compound exhibited 25-50% inhibition at 0.3 μM)
16,CC12CC3CC(C)(C1)CC(CC(=O)Nc1ncnc4c1CCN(C(=O)c1c(F)cccc1Cl)C4)(C3)C2 [Compound 389],++ (compound exhibited 25-50% inhibition at 0.3 μM)
17,CC12CC3CC(C)(C1)CC(CC(=O)Nc1ncnc4c1CCN(Cc1ccc(F)cc1F)C4)(C3)C2 [Compound 374],++ (compound exhibited 25-50% inhibition at 0.3 μM)
18,Cc1cc(S(=O)(=O)N2CCc3c(ncnc3NC(=O)CC34CC5CC(CC(C5)C3)C4)C2)c(C(F)(F)F)o1 [Compound 159],+ (compound exhibited 0-25% inhibition at 0.3 μM)
19,O=C(CC12CC3CC(CC(C3)C1)C2)Nc1ncnc2c1CCN(Cc1cccnc1)C2 [Compound 16],+ (compound exhibited 0-25% inhibition at 0.3 μM)
20,CC12CC3CC(C)(C1)CC(CC(=O)Nc1ncnc4c1CCN(C(=O)C1CCCCC1)C4)(C3)C2 [Compound 386],++ (compound exhibited 25-50% inhibition at 0.3 μM)

row,SMILES,IL-1β % inhibition
1,O=C(CC12CC3CC(CC(C3)C1)C2)Nc1ncnc2c1CCN(S(=O)(=O)Cc1ccc(Cl)cc1)C2 [Compound 189],++++ (compound exhibited 75% or greater inhibition at 0.3 μM)
2,COc1cc(OC)cc(C(=O)N2CCc3c(ncnc3NC(=O)CC34CC5CC(CC(C5)C3)C4)C2)c1 [Compound 246],++ (compound exhibited 25-50% inhibition at 0.3 μM)
3,COc1ccc(C(=O)N2CCc3c(ncnc3NC(=O)CC34CC5CC(CC(C5)C3)C4)C2)cc1 [Compound 234],++ (compound exhibited 25-50% inhibition at 0.3 μM)
4,N#Cc1ccc(CN2CCc3c(ncnc3NC(=O)CC34CC5CC(CC(C5)C3)C4)C2)cc1 [Compound 42],+ (compound exhibited 0-25% inhibition at 0.3 μM)
5,O=C(NCC1CCCCC1)c1ncnc2c1CCN(Cc1ccc(Cl)cc1)C2 [Compound 51],+ (compound exhibited 0-25% inhibition at 0.3 μM)
6,O=C(CC1CCCCCC1)Nc1ncnc2c1CCN(CC1CCCCC1)C2 [Compound 127],+ (compound exhibited 0-25% inhibition at 0.3 μM)
7,O=C(CC12CC3CC(CC(C3)C1)C2)Nc1ncnc2c1CCN(S(=O)(=O)c1ccccc1F)C2 [Compound 166],++ (compound exhibited 25-50% inhibition at 0.3 μM)
8,O=C(CC12CC3CC(CC(C3)C1)C2)Nc1ncnc2c1CCN(S(=O)(=O)c1cc(Cl)ccc1Cl)C2 [Compound 204],+ (compound exhibited 0-25% inhibition at 0.3 μM)
9,CC(C)(C(=O)Nc1ncnc2c1CCN(Cc1ccccc1F)C2)C12CC3CC(CC(C3)C1)C2 [Compound 369],+ (compound exhibited 0-25% inhibition at 0.3 μM)
10,Cc1noc(C)c1C(=O)N1CCc2c(ncnc2NC(=O)CC23CC4CC(CC(C4)C2)C3)C1 [Compound 297],+ (compound exhibited 0-25% inhibition at 0.3 μM)
11,O=C(CC12CC3CC(CC(C3)C1)C2)Nc1ncnc2c1CCN(S(=O)(=O)c1ccccc1-c1ccccc1)C2 [Compound 194],++++ (compound exhibited 75% or greater inhibition at 0.3 μM)
12,O=C(CC12CC3CC(CC(C3)C1)C2)Nc1ncnc2c1CCN(S(=O)(=O)c1c(F)cccc1F)C2 [Compound 206],+ (compound exhibited 0-25% inhibition at 0.3 μM)
13,O=C(O)COc1ccc(CN2CCc3c(ncnc3NC(=O)CC34CC5CC(CC(C5)C3)C4)C2)cc1 [Compound 140],+ (compound exhibited 0-25% inhibition at 0.3 μM)
14,O=C(CC12CC3CC(CC(C3)C1)C2)Nc1ncnc2c1CCN(S(=O)(=O)Cc1cccc(C(F)(F)F)c1)C2 [Compound 187],++++ (compound exhibited 75% or greater inhibition at 0.3 μM)
15,Cc1cc(C)cc(S(=O)(=O)N2CCc3c(ncnc3NC(=O)CC34CC5CC(CC(C5)C3)C4)C2)c1 [Compound 217],+ (compound exhibited 0-25% inhibition at 0.3 μM)
16,CC(C)(C(=O)Nc1ncnc2c1CCN(Cc1ccc3c(c1)OCCO3)C2)C12CC3CC(CC(C3)C1)C2 [Compound 350],+ (compound exhibited 0-25% inhibition at 0.3 μM)
17,COc1cccc(CN2CCc3c(ncnc3NC(=O)CC34CC5CC(CC(C5)C3)C4)C2)c1 [Compound 35],+++ (compound exhibited 50-75% inhibition at 0.3 μM)
18,COc1ccc(CN2CCc3c(ncnc3NC(=O)CC34CC5CC(CC(C5)C3)C4)C2)cc1OC [Compound 36],+ (compound exhibited 0-25% inhibition at 0.3 μM)
19,O=C(CC12CC3CC(CC(C3)C1)C2)Nc1ncnc2c1CCN(Cc1ccccc1Cl)C2 [Compound 27],+++ (compound exhibited 50-75% inhibition at 0.3 μM)
20,O=C(c1ccc(OC(F)(F)F)cc1)N1CCc2c(ncnc2NC(=O)C23CC4CC(CC(C4)C2)C3)C1 [Compound 401],+ (compound exhibited 0-25% inhibition at 0.3 μM)

# Same assay, conditions: at 0.3 μM; THP-1 cells, BzATP-stimulated
row,SMILES,IL-1β % inhibition
1,Cc1ccc2occ(CN3CCc4c(ncnc4NC(=O)C45CC6CC(CC(C6)C4)C5)C3)c(=O)c2c1 [Compound 567],++ (compound exhibited 25-50% inhibition at 0.3 μM)
2,O=C(Nc1ncnc2c1CCN(Cc1cccc(OC(F)(F)F)c1)C2)C12CC3CC(CC(C3)C1)C2 [Compound 632],++ (compound exhibited 25-50% inhibition at 0.3 μM)
3,O=C(c1ccccc1Cl)N1CCc2c(ncnc2NC(=O)C23CC4CC(CC(C4)C2)C3)C1 [Compound 464],++ (compound exhibited 25-50% inhibition at 0.3 μM)
4,O=C(Nc1ncnc2c1CCN(Cc1cccc(Cl)c1)C2)C12CC3CC(CC(C3)C1)C2 [Compound 598],+ (compound exhibited 0-25% inhibition at 0.3 μM)
5,O=C(c1cccc(Cl)c1Cl)N1CCc2c(ncnc2NC(=O)C23CC4CC(CC(C4)C2)C3)C1 [Compound 454],++ (compound exhibited 25-50% inhibition at 0.3 μM)
6,O=C(Nc1ncnc2c1CCN(Cc1ccc(C(F)(F)F)cc1)C2)C12CC3CC(CC(C3)C1)C2 [Compound 604],++++ (compound exhibited 75% or greater inhibition at 0.3 μM)
7,O=C(Nc1ncnc2c1CCN(CC1CCCC1)C2)C12CC3CC(CC(C3)C1)C2 [Compound 619],+ (compound exhibited 0-25% inhibition at 0.3 μM)
8,O=C(c1ccc(Cl)nc1)N1CCc2c(ncnc2NC(=O)C23CC4CC(CC(C4)C2)C3)C1 [Compound 453],+ (compound exhibited 0-25% inhibition at 0.3 μM)
9,O=C(Nc1ncnc2c1CCN(S(=O)(=O)c1ccc(C(F)(F)F)cc1)C2)C12CC3CC(CC(C3)C1)C2 [Compound 535],++ (compound exhibited 25-50% inhibition at 0.3 μM)
10,O=C(Nc1ncnc2c1CCN(Cc1ccc(OC(F)(F)F)cc1)C2)C12CC3CC(CC(C3)C1)C2 [Compound 620],++ (compound exhibited 25-50% inhibition at 0.3 μM)
